From US11718864B2, “Cells and method of cell culture” (PFIZER INC., priority 2015, dated 2023)

Assays:
Assay type in all cases: cell-based, Chinese hamster
[1] = test system: GS-CHO cells (Cell line A); assay: Growth (viable cell density) of GS-CHO cells in Medium A spiked with putative inhibitor metabolites; settings: single metabolite
Experimental: GS-CHO cells producing a recombinant antibody were inoculated at low viable cell densities (0.1E6 cells/mL) in various conditions in 5 ml volume, 6-well plate cultures. […] The pH of the Medium A, spiked-in with any one of the nine metabolites or any combination of the nine metabolites, was adjusted to 7 before inoculating the cells (on day 0).
For indolelactate, the stock solution (500 mM) was prepared in DMSO. […] All the conditions were run in duplicates or triplicates. Growth of the cells in above described conditions was monitored for 5 or 6 days.

BCAT1 = assay: Western blot of BCAT1 protein after transient miRNA transfection, CHO parental cell line; settings: CHO parental cell line transient transfections, vs untransfected and negative control miRNA
Experimental: miRNA knockdown works by expressing small RNA sequences (approximately 20-25 bases) that are complimentary to a target gene sequence (e.g. BCAT1). The miRNA binds to the messenger RNA (mRNA) of the target gene forming a region of double stranded RNA. […] Micro RNA knockdown of BCAT1 was performed using the BLOCK-iT Inducible Pol II miR RNAi Expression Vector Kit with EmGFP (Invitrogen). Five miRNA oligonucleotide pairs (complementary top and bottom strand of BCAT1) were designed using an online tool called Block-iT RNAi Designer and the DNA oligonucleotides were prepared by Integrated DNA technologies. The oligonucleotide pairs were annealed and ligated into the pcDNA™6.2-GW/EmGFP-miR vector. The vectors (five of them) were sequence confirmed by WyzerBiosciences (Cambridge, Mass.). The five miRNA vectors or a negative control vector named pcDNA™6.2-GW/EmGFP-miR-neg (provided by Invitrogen with the kit) were transfected into CHO parental cell line or CHO cell line B using the GenePulser XCell eletroporator (BioRad) and were left to recover for two days. After two days, cells were either subjected to selection pressure by antibiotic (blasticidin, 10 ug/mL) for generation of stable cell pools (see Example 24), or cell lysates from the transfected cells (or untransfected cells) were prepared in M-PER protein extraction reagent (Thermo Fisher) supplemented with cOmplete, Mini, EDTA-free Protease Inhibitor Cocktail (Roche). The samples were analyzed by western blot using the Novex NuPage system (Thermo Fisher). The system provides polyacrylamide gels, sample loading buffer, sample reductant, gel running buffer, protein mass standard, nitrocellulose membrane, and chemiluminescence detection reagent. The blots were probed with a rabbit polyclonal anti-BCAT1 antibody (AbCam, Cat#ab110761) or a B-Actin antibody (AbCam, Cat#ab8227). The western blots were imaged using a BioRad ChemiDoc system and analyzed for levels of B-actin and BCAT1.

CHO cell line A = assay: Growth of CHO cell line A in Medium A supplemented with 2-methylbutyrate or isobutyrate; settings: at concentrations higher than 1 mM; monitored 5 days
Experimental: CHO cell line A producing a recombinant antibody were inoculated at low cell densities (0.1E6 cells/mL) in various conditions in triplicates in 6-well plate cultures. The working volume for each well on day 0 was 4 mL. […] The 6-well plates were incubated on a shaking platform in 36.5 C and 5% carbon dioxide. Cell growth in all the conditions was monitored for 5 days.

[2] = at concentrations higher than 0.5 mM or 1 mM

N[C@@H](CCS)C(=O)O [homocysteine]
effect on growth of cells [1, 2]: Modest inhibition of growth

miRNA Seq 5.1a: BCAT1 miRNA sequence CTTGGGCAAACTGACTGATAT expressed from pcDNA6.2-GW/EmGFP-miR vector (listed as Cricetulus griseus)
BCAT1 protein level (western blot) (BCAT1): lower level of BCAT1 protein

miRNA Seq 4.1a: BCAT1 miRNA sequence CACGATGAATCTGTTCCTCTA expressed from pcDNA6.2-GW/EmGFP-miR vector (listed as Cricetulus griseus)
BCAT1 protein level (western blot) (BCAT1): lower level of BCAT1 protein

O=C(O)c1c[nH]c2ccccc12 [Indolecarboxylic acid]
effect on growth of cells ([1]; at concentrations of 1 mM or lower, growth monitored 5 or 6 days): potent negative effect on growth

miRNA Seq 2.1a: BCAT1 miRNA sequence TCTGCTGTGAGGACCACTTTG expressed from pcDNA6.2-GW/EmGFP-miR vector (listed as Cricetulus griseus)
BCAT1 protein level (western blot) (BCAT1): lower level of BCAT1 protein

O=C(O)C(O)Cc1c[nH]c2ccccc12 (stereo not drawn) [Indolelactate]
effect on growth of cells ([1]; at concentrations of 3 mM or below, DMSO controls): little or no effect on growth

O=CO [Formate]
effect on growth of cells ([1]; at concentrations 2 mM and beyond): negative effect on growth

CCC(O)C(=O)O (stereo not drawn) [2-hydroxybutyric acid]
effect on growth of cells [1, 2]: Modest inhibition of growth

CC(C)C(=O)O [isobutyrate]
cell growth (CHO cell line A): suppressed

O=C(O)[C@H](O)Cc1ccccc1 [L-phenyllactate]
effect on growth of cells ([1]; at 1 mM concentration): mild effect on growth

O=C(O)C(O)Cc1ccc(O)cc1 (stereo not drawn) [3-(4-hydroxyphenyl)lactate]
effect on growth of cells [1, 2]: Modest inhibition of growth

miRNA Seq 3.1a: BCAT1 miRNA sequence AGTGGGCACGATGAATCTGTT expressed from pcDNA6.2-GW/EmGFP-miR vector (listed as Cricetulus griseus)
BCAT1 protein level (western blot) (BCAT1): lower level of BCAT1 protein
